Laboratory results taken from ChEMBL document CHEMBL4706534, “1,2,3-Triazole-containing hybrids with potential antibacterial activity against methicillin-resistant Staphylococcus aureus (MRSA)” (Eur J Med Chem, 2020).
In brackets after ≈: the same amount, converted by molar mass.

System: Staphylococcus aureus
Test: Antibacterial activity against Methicillin-resistant Staphylococcus aureus ATCC 33591
Type: functional, organism-based

**Q.** `CN[C@H](CC(C)C)C(=O)N[C@@H]1Cc2ccc(c(Cl)c2)Oc2cc3cc(c2O[C@@H]2O[C@H](CO)[C@@H](O)[C@H](O)[C@H]2O[C@H]2C[C@](C)(N)[C@H](O)[C@H](C)O2)Oc2ccc(cc2Cl)[C@@H](O)[C@@H]2NC(=O)[C@H](NC(=O)[C@@H]3NC(=O)[C@H](CC(=O)O)NC1=O)c1ccc(O)c(c1)-c1c(O)cc(O)cc1[C@H](C(=O)NCCn1cc(CNC(=O)[C@@H]3NC(=O)[C@H]4NC(=O)[C@H](NC(=O)[C@@H]5NC(=O)[C@H](CC(=O)O)NC(=O)[C@H](NC(=O)[C@@H](CC(C)C)NC)Cc6ccc(c(Cl)c6)Oc6cc5cc(c6O[C@@H]5O[C@H](CO)[C@@H](O)[C@H](O)[C@H]5O[C@H]5C[C@](C)(N)[C@H](O)[C@H](C)O5)Oc5ccc(cc5Cl)[C@H]4O)c4ccc(O)c(c4)-c4c(O)cc(O)cc43)nn1)NC2=O` was tested. Which MIC did it give?
**A.** 1.3 µg/mL (≈ 0.437 µM)

**Q.** `CN[C@H](CC(C)C)C(=O)N[C@@H]1Cc2ccc(c(Cl)c2)Oc2cc3cc(c2O[C@@H]2O[C@H](CO)[C@@H](O)[C@H](O)[C@H]2O[C@H]2C[C@](C)(N)[C@H](O)[C@H](C)O2)Oc2ccc(cc2Cl)[C@@H](O)[C@@H]2NC(=O)[C@H](NC(=O)[C@@H]3NC(=O)[C@H](CC(=O)O)NC1=O)c1ccc(O)c(c1)-c1c(O)cc(O)cc1[C@H](C(=O)NCCCn1cc(CNC(=O)[C@@H]3NC(=O)[C@H]4NC(=O)[C@H](NC(=O)[C@@H]5NC(=O)[C@H](CC(=O)O)NC(=O)[C@H](NC(=O)[C@@H](CC(C)C)NC)Cc6ccc(c(Cl)c6)Oc6cc5cc(c6O[C@@H]5O[C@H](CO)[C@@H](O)[C@H](O)[C@H]5O[C@H]5C[C@](C)(N)[C@H](O)[C@H](C)O5)Oc5ccc(cc5Cl)[C@H]4O)c4ccc(O)c(c4)-c4c(O)cc(O)cc43)nn1)NC2=O` was tested. Which MIC did it give?
**A.** 1.3 µg/mL (≈ 0.435 µM)

**Q.** Which MIC does the source give for `CN[C@H](CC(C)C)C(=O)N[C@@H]1Cc2ccc(c(Cl)c2)Oc2cc3cc(c2O[C@@H]2O[C@H](CO)[C@@H](O)[C@H](O)[C@H]2O[C@H]2C[C@](C)(N)[C@H](O)[C@H](C)O2)Oc2ccc(cc2Cl)[C@@H](O)[C@@H]2NC(=O)[C@H](NC(=O)[C@@H]3NC(=O)[C@H](CC(=O)O)NC1=O)c1ccc(O)c(c1)-c1c(O)cc(O)cc1[C@H](C(=O)NCCc1cn(CCNC(=O)[C@@H]3NC(=O)[C@H]4NC(=O)[C@H](NC(=O)[C@@H]5NC(=O)[C@H](CC(=O)O)NC(=O)[C@H](NC(=O)[C@@H](CC(C)C)NC)Cc6ccc(c(Cl)c6)Oc6cc5cc(c6O[C@@H]5O[C@H](CO)[C@@H](O)[C@H](O)[C@H]5O[C@H]5C[C@](C)(N)[C@H](O)[C@H](C)O5)Oc5ccc(cc5Cl)[C@H]4O)c4ccc(O)c(c4)-c4c(O)cc(O)cc43)nn1)NC2=O` here?
**A.** 1.3 µg/mL (≈ 0.435 µM)

**Q.** How did the MIC turn out when `CN[C@H](CC(C)C)C(=O)N[C@@H]1Cc2ccc(c(Cl)c2)Oc2cc3cc(c2O[C@@H]2O[C@H](CO)[C@@H](O)[C@H](O)[C@H]2O[C@H]2C[C@](C)(N)[C@H](O)[C@H](C)O2)Oc2ccc(cc2Cl)[C@@H](O)[C@@H]2NC(=O)[C@H](NC(=O)[C@@H]3NC(=O)[C@H](CC(=O)O)NC1=O)c1ccc(O)c(c1)-c1c(O)cc(O)cc1[C@H](C(=O)NCCCCCc1cn(CCNC(=O)[C@@H]3NC(=O)[C@H]4NC(=O)[C@H](NC(=O)[C@@H]5NC(=O)[C@H](CC(=O)O)NC(=O)[C@H](NC(=O)[C@@H](CC(C)C)NC)Cc6ccc(c(Cl)c6)Oc6cc5cc(c6O[C@@H]5O[C@H](CO)[C@@H](O)[C@H](O)[C@H]5O[C@H]5C[C@](C)(N)[C@H](O)[C@H](C)O5)Oc5ccc(cc5Cl)[C@H]4O)c4ccc(O)c(c4)-c4c(O)cc(O)cc43)nn1)NC2=O` was run?
**A.** 1.3 µg/mL (≈ 0.429 µM)
